Data reported in US12077503B2, “Substituted cyclic amides and their use as herbicides” (FMC CORPORATION, priority 2015, dated 2024).

Assays:
Assay type in all cases: in vivo
corn (Zea mays) [1] = assay: Test G Post-Emergence Protocol; conditions: Zea mays, post-emergence, 312 h, read-out: Corn damage rating; for plant injury at 15.625 g/ha: 15.625 g ai/ha, evaluated after 13 days (100=total damage to plant; 0=no damage to plant); for plant injury at 62.5 g/ha: 62.5 g ai/ha; for plant injury at 62.5 g/ha / plant injury at 250 g/ha: evaluated after 13 days, 100=total damage to plant, 0=no damage to plant; for plant injury at 250 g/ha: 250 g ai/ha
Summary of the method: (§1)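 Damage was rated 13 days after treatment from 0 (none) to 100 (plant killed). Compound was applied as a spray at 15.625, 62.5 or 250 g/ha in 50:50 acetone/water containing 0.5% Tween 20, onto 8-day-old potted plants kept in a glasshouse (24/16 °C, 14 h light, 65% humidity).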

[2] = system: ivy-leaved morning glory (Ipomoea hederacea); assay: Test G Post-Emergence Protocol; conditions: Ipomoea, post-emergence, 312 h, read-out: Morningglory, Ivy-leaved damage rating; for pest or weed control at 15.625 g/ha: 15.625 g ai/ha, evaluated after 13 days (100=total damage to plant; 0=no damage to plant); for pest or weed control at 62.5 g/ha: 62.5 g ai/ha; for pest or weed control at 62.5 g/ha / pest or weed control at 250 g/ha: evaluated after 13 days, 100=total damage to plant, 0=no damage to plant; for pest or weed control at 250 g/ha: 250 g ai/ha
Summary of the method: as §1

[3] = system: redroot pigweed (Amaranthus retroflexus); assay: Test G Post-Emergence Protocol; conditions: Amaranthus retroflexus, post-emergence, 312 h, read-out: Pigweed, Redroot damage rating; for pest or weed control at 15.625 g/ha: 15.625 g ai/ha, evaluated after 13 days (100=total damage to plant; 0=no damage to plant); for pest or weed control at 62.5 g/ha: 62.5 g ai/ha; for pest or weed control at 62.5 g/ha / pest or weed control at 250 g/ha: evaluated after 13 days, 100=total damage to plant, 0=no damage to plant; for pest or weed control at 250 g/ha: 250 g ai/ha
Summary of the method: as §1

[4] = system: velvetleaf (Abutilon theophrasti); assay: Test G Post-Emergence Protocol; conditions: Abutilon theophrasti, post-emergence, 312 h, read-out: Velvetleaf damage rating; for pest or weed control at 15.625 g/ha: 15.625 g ai/ha, evaluated after 13 days (100=total damage to plant; 0=no damage to plant); for pest or weed control at 62.5 g/ha: 62.5 g ai/ha; for pest or weed control at 62.5 g/ha / pest or weed control at 250 g/ha: evaluated after 13 days, 100=total damage to plant, 0=no damage to plant; for pest or weed control at 250 g/ha: 250 g ai/ha
Summary of the method: as §1

[5] = system: barnyardgrass (Echinochloa crus-galli); assay: Test G Post-Emergence Protocol; conditions: Echinochloa crus-galli, post-emergence, 312 h, read-out: Barnyardgrass damage rating; for pest or weed control at 15.625 g/ha: 15.625 g ai/ha, evaluated after 13 days (100=total damage to plant; 0=no damage to plant); for pest or weed control at 62.5 g/ha: 62.5 g ai/ha; for pest or weed control at 62.5 g/ha / pest or weed control at 250 g/ha: evaluated after 13 days, 100=total damage to plant, 0=no damage to plant; for pest or weed control at 250 g/ha: 250 g ai/ha
Summary of the method: as §1

[6] = system: giant foxtail (Setaria faberi); assay: Test G Post-Emergence Protocol; conditions: Setaria faberi, post-emergence, 312 h, read-out: Foxtail, Giant damage rating; for pest or weed control at 15.625 g/ha: 15.625 g ai/ha, evaluated after 13 days (100=total damage to plant; 0=no damage to plant); for pest or weed control at 62.5 g/ha: 62.5 g ai/ha; for pest or weed control at 62.5 g/ha / pest or weed control at 250 g/ha: evaluated after 13 days, 100=total damage to plant, 0=no damage to plant; for pest or weed control at 250 g/ha: 250 g ai/ha
Summary of the method: as §1

corn (Zea mays) [7] = assay: Test G Pre-Emergence Protocol; conditions: Zea mays, pre-emergence, 312 h, evaluated after 13 days; for plant injury at 15.625 g/ha: 15.625 g ai/ha; for plant injury at 15.625 g/ha / plant injury at 250 g/ha: read-out: Corn damage rating (100=total damage to plant; 0=no damage to plant); for plant injury at 62.5 g/ha: 62.5 g ai/ha, 100=total damage to plant, 0=no damage to plant, read-out: Corn damage rating; for plant injury at 250 g/ha: 250 g ai/ha
Summary of the method: (§2)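 Visual injury (0–100) at day 13 after a single pre-emergence spray. Rates: 15.625, 62.5, 250 g/ha in acetone–water 50:50 with 0.5% Tween 20. Growth conditions: 24/16° C, 14 h light, 65% humidity.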

[8] = system: ivy-leaved morning glory (Ipomoea hederacea); assay: Test G Pre-Emergence Protocol; conditions: Ipomoea, pre-emergence, 312 h, evaluated after 13 days; for pest or weed control at 15.625 g/ha: 15.625 g ai/ha; for pest or weed control at 15.625 g/ha / pest or weed control at 250 g/ha: read-out: Morningglory, Ivy-leaved damage rating (100=total damage to plant; 0=no damage to plant); for pest or weed control at 62.5 g/ha: 62.5 g ai/ha, 100=total damage to plant, 0=no damage to plant, read-out: Morningglory, Ivy-leaved damage rating; for pest or weed control at 250 g/ha: 250 g ai/ha
Summary of the method: as §2

[9] = system: redroot pigweed (Amaranthus retroflexus); assay: Test G Pre-Emergence Protocol; conditions: Amaranthus retroflexus, pre-emergence, 312 h, evaluated after 13 days; for pest or weed control at 15.625 g/ha: 15.625 g ai/ha; for pest or weed control at 15.625 g/ha / pest or weed control at 250 g/ha: read-out: Pigweed, Redroot damage rating (100=total damage to plant; 0=no damage to plant); for pest or weed control at 62.5 g/ha: 62.5 g ai/ha, 100=total damage to plant, 0=no damage to plant, read-out: Pigweed, Redroot damage rating; for pest or weed control at 250 g/ha: 250 g ai/ha
Summary of the method: as §2

[10] = system: velvetleaf (Abutilon theophrasti); assay: Test G Pre-Emergence Protocol; conditions: Abutilon theophrasti, pre-emergence, 312 h, evaluated after 13 days; for pest or weed control at 15.625 g/ha: 15.625 g ai/ha; for pest or weed control at 15.625 g/ha / pest or weed control at 250 g/ha: read-out: Velvetleaf damage rating (100=total damage to plant; 0=no damage to plant); for pest or weed control at 62.5 g/ha: 62.5 g ai/ha, 100=total damage to plant, 0=no damage to plant, read-out: Velvetleaf damage rating; for pest or weed control at 250 g/ha: 250 g ai/ha
Summary of the method: as §2

[11] = system: barnyardgrass (Echinochloa crus-galli); assay: Test G Pre-Emergence Protocol; conditions: Echinochloa crus-galli, pre-emergence, 312 h, evaluated after 13 days; for pest or weed control at 15.625 g/ha: 15.625 g ai/ha; for pest or weed control at 15.625 g/ha / pest or weed control at 250 g/ha: read-out: Barnyardgrass damage rating (100=total damage to plant; 0=no damage to plant); for pest or weed control at 62.5 g/ha: 62.5 g ai/ha, 100=total damage to plant, 0=no damage to plant, read-out: Barnyardgrass damage rating; for pest or weed control at 250 g/ha: 250 g ai/ha
Summary of the method: as §2

[12] = system: giant foxtail (Setaria faberi); assay: Test G Pre-Emergence Protocol; conditions: Setaria faberi, pre-emergence, 312 h, evaluated after 13 days; for pest or weed control at 15.625 g/ha: 15.625 g ai/ha; for pest or weed control at 15.625 g/ha / pest or weed control at 250 g/ha: read-out: Foxtail, Giant damage rating (100=total damage to plant; 0=no damage to plant); for pest or weed control at 62.5 g/ha: 62.5 g ai/ha, 100=total damage to plant, 0=no damage to plant, read-out: Foxtail, Giant damage rating; for pest or weed control at 250 g/ha: 250 g ai/ha
Summary of the method: as §2

SMILES	plant injury at 15.625 g/ha (corn (Zea mays) [1]) [%]	plant injury at 62.5 g/ha (corn (Zea mays) [1]) [%]	plant injury at 250 g/ha (corn (Zea mays) [1]) [%]	pest or weed control at 15.625 g/ha [2] [%]	pest or weed control at 62.5 g/ha [2] [%]	pest or weed control at 250 g/ha [2] [%]	pest or weed control at 15.625 g/ha [3] [%]	pest or weed control at 62.5 g/ha [3] [%]	pest or weed control at 250 g/ha [3] [%]	pest or weed control at 15.625 g/ha [4] [%]	pest or weed control at 62.5 g/ha [4] [%]	pest or weed control at 250 g/ha [4] [%]	pest or weed control at 15.625 g/ha [5] [%]	pest or weed control at 62.5 g/ha [5] [%]	pest or weed control at 250 g/ha [5] [%]	pest or weed control at 15.625 g/ha [6] [%]	pest or weed control at 62.5 g/ha [6] [%]	plant injury at 15.625 g/ha (corn (Zea mays) [7]) [%]	plant injury at 62.5 g/ha (corn (Zea mays) [7]) [%]	plant injury at 250 g/ha (corn (Zea mays) [7]) [%]	further results
CSc1ccncc1NC(=O)[C@H]1C(=O)N(C)C[C@@H]1c1cccc(C(F)(F)F)c1 (racemic) [Compound 1750]	0	10	10	0	10	10	0	10	20	0	0	0	0	0	20	0	0	0	0	10	pest or weed control at 250 g/ha [6]: 50%; pest or weed control at 15.625 g/ha [8]: 0%; pest or weed control at 62.5 g/ha [8]: 0%; pest or weed control at 250 g/ha [8]: 0%; pest or weed control at 15.625 g/ha [9]: 0%; pest or weed control at 62.5 g/ha [9]: 0%; pest or weed control at 250 g/ha [9]: 0%; pest or weed control at 15.625 g/ha [10]: 0%; pest or weed control at 62.5 g/ha [10]: 0%; pest or weed control at 250 g/ha [10]: 0%; pest or weed control at 15.625 g/ha [11]: 0%; pest or weed control at 62.5 g/ha [11]: 10%; pest or weed control at 250 g/ha [11]: 10%; pest or weed control at 15.625 g/ha [12]: 0%; pest or weed control at 62.5 g/ha [12]: 20%; pest or weed control at 250 g/ha [12]: 70%
CN1CC(c2cc(C#N)cc(C(F)(F)F)c2)C(C(=O)Nc2cccc(F)c2F)C1=O (stereo not shown) [Compound 1684]	0	0	0	0	0	0	0	0	0	0	0	0	0	0	0	0	0	0	0	10	pest or weed control at 15.625 g/ha [8]: 0%; pest or weed control at 62.5 g/ha [8]: 0%; pest or weed control at 250 g/ha [8]: 0%; pest or weed control at 15.625 g/ha [9]: 0%; pest or weed control at 62.5 g/ha [9]: 0%; pest or weed control at 250 g/ha [9]: 10%; pest or weed control at 15.625 g/ha [10]: 0%; pest or weed control at 62.5 g/ha [10]: 0%; pest or weed control at 250 g/ha [10]: 0%; pest or weed control at 15.625 g/ha [11]: 0%; pest or weed control at 62.5 g/ha [11]: 0%; pest or weed control at 250 g/ha [11]: 0%; pest or weed control at 15.625 g/ha [12]: 0%; pest or weed control at 62.5 g/ha [12]: 0%; pest or weed control at 250 g/ha [12]: 0%
CN1C[C@H](c2cc(C(C)(C)C)ncn2)[C@@H](C(=O)Nc2ccc(F)c(F)c2F)C1=O (racemic) [Compound 1668]	0	0	0	0	0	0	0	0	0	0	0	0	0	0	0	0	0	0	0	0	pest or weed control at 250 g/ha [6]: 10%; pest or weed control at 15.625 g/ha [8]: 0%; pest or weed control at 62.5 g/ha [8]: 0%; pest or weed control at 15.625 g/ha [9]: 0%; pest or weed control at 62.5 g/ha [9]: 0%; pest or weed control at 250 g/ha [9]: 0%; pest or weed control at 15.625 g/ha [10]: 0%; pest or weed control at 62.5 g/ha [10]: 0%; pest or weed control at 250 g/ha [10]: 0%; pest or weed control at 15.625 g/ha [11]: 0%; pest or weed control at 62.5 g/ha [11]: 0%; pest or weed control at 250 g/ha [11]: 20%; pest or weed control at 15.625 g/ha [12]: 0%; pest or weed control at 62.5 g/ha [12]: 0%; pest or weed control at 250 g/ha [12]: 20%
